The record followed here is patent US20250367166A1, “NEXT GENERATION DIPROVOCIMS THAT ACTIVATE THE INNATE AND ADAPTIVE IMMUNE RESPONSE” (The Scripps Research Institute, priority 2022, published 2025).

The target of experiment [1] is TLR1/TLR2 (Mus musculus, UniProt Q9EPQ1+Q9QUN7). In words: TNF-α release from thioglycolate-elicited mouse peritoneal macrophages (ELISA). The following applies: for Emax: 4 h, read-out: Efficacy (magnitude) of response versus diprovocim-1 (100%), mouse macrophages. For orientation: In an ELISA, binding on a coated surface is turned into a signal by an enzyme label.
Chain of TLR1/TLR2 (Mus musculus, UniProt Q9EPQ1+Q9QUN7) (Q9EPQ1 26-795): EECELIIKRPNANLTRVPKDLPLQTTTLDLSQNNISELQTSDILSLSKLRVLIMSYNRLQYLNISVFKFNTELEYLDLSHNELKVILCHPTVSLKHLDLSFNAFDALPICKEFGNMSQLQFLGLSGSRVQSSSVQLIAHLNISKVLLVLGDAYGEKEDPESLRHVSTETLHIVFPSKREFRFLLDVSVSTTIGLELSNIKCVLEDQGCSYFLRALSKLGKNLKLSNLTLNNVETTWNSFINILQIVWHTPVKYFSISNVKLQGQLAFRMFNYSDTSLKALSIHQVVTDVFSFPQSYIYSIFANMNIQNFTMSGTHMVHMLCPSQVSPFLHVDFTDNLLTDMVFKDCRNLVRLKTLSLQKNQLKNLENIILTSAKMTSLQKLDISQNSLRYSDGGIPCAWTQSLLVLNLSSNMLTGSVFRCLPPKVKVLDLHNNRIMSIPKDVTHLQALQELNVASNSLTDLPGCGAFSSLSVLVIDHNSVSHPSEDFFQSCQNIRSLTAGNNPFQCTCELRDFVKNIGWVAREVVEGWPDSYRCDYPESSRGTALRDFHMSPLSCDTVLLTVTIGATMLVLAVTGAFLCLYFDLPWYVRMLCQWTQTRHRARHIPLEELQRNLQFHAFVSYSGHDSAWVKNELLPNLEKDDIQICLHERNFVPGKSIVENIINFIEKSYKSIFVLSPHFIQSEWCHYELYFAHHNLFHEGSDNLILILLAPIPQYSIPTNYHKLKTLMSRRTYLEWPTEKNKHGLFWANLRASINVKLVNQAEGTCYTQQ
Chain of TLR1/TLR2 (Mus musculus, UniProt Q9EPQ1+Q9QUN7) (Q9QUN7 25-784): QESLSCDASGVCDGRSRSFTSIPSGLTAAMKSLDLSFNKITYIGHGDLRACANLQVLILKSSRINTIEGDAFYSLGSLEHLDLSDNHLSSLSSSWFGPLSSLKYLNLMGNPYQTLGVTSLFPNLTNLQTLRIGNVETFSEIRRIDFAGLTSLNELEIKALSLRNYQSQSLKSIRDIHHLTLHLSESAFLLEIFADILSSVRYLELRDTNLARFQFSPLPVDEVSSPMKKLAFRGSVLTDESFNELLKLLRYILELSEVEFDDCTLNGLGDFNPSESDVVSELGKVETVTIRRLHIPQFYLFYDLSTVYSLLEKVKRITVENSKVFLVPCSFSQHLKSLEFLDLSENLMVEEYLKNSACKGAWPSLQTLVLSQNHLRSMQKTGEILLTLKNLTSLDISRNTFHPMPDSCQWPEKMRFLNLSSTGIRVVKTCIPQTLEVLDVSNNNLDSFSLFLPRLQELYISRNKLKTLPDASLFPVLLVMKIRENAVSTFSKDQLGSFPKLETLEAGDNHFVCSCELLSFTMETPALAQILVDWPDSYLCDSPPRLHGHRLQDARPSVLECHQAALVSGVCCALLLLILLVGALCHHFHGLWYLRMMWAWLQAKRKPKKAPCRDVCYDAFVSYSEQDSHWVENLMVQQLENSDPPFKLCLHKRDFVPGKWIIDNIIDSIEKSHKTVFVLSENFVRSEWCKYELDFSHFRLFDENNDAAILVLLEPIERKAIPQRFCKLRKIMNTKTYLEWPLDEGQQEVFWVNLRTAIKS
The target of experiment [2] is TLR1/TLR2 (Homo sapiens, UniProt O60603+Q15399). In words: TNF-α release from PMA-differentiated human THP-1 cells (ELISA).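 As to all read-outs here: cells exposed to graded compound concentrations for 4 h, TNF-α quantified in supernatant, LPS as positive and DMSO as negative control, values are duplicate means.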 Particulars: for Emax: THP-1, 4 h, read-out: Efficacy (magnitude) of response versus diprovocim-1 (100%), THP-1.
Chain of TLR1/TLR2 (Homo sapiens, UniProt O60603+Q15399) (Q15399 25-786): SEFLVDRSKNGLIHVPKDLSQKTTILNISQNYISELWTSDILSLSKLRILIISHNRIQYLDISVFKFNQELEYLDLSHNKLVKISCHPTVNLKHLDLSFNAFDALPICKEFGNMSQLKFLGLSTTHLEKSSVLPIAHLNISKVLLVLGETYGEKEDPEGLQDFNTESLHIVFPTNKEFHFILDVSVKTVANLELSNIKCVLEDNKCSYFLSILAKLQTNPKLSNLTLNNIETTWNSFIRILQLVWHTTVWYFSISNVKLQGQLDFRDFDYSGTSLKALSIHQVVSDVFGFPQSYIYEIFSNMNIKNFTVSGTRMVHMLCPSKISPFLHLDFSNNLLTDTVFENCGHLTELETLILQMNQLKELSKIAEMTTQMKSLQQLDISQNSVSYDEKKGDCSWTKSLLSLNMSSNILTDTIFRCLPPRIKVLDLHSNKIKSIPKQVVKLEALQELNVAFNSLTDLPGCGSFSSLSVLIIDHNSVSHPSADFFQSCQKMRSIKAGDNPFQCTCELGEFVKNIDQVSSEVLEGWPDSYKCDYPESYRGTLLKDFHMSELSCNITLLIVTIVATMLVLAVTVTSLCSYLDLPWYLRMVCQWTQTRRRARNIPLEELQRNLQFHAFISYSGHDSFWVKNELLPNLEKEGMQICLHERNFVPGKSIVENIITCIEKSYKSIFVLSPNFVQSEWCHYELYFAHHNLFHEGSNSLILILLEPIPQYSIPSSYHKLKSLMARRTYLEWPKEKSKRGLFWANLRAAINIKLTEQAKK
Chain of TLR1/TLR2 (Homo sapiens, UniProt O60603+Q15399) (O60603 21-784): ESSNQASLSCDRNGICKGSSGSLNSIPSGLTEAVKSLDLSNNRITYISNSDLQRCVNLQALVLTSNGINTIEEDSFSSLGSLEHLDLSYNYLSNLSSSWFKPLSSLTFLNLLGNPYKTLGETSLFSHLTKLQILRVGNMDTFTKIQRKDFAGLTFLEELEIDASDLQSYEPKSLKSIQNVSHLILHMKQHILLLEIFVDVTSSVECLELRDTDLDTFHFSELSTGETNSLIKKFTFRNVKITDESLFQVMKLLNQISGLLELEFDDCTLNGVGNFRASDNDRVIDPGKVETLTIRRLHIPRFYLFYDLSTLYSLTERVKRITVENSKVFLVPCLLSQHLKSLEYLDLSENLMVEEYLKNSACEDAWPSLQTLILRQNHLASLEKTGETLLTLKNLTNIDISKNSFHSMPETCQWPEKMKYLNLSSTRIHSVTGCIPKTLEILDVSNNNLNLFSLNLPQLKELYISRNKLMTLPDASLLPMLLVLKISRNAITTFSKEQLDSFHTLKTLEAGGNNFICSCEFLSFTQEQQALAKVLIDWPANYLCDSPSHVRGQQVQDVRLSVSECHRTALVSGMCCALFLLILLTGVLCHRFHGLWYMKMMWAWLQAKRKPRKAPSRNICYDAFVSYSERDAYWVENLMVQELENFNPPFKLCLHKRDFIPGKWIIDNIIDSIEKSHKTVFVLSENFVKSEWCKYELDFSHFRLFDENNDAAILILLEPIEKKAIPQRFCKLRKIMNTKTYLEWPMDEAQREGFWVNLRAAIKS
The mark [3] stands for this setting: read-out: EC50 (nM) (mouse): EC50 TNF-α release from mouse macrophages, Table 3.
The mark [4] stands for this setting: read-out: EC50 (nM) (THP-1): EC50 TNF-α release from human THP-1 cells, Table 3.

Where two headings read alike, the source gives them in different places.

In general, EC50 refers to the concentration that produces a half-maximal response. For the compound `[N-]=[N+]=NCC(=O)OCCCCCCCCCCCCNC(=O)[C@@H]1CN(C(=O)c2ccc(C(=O)N3C[C@@H](C(=O)N[C@H]4C[C@@H]4c4ccccc4)[C@H](C(=O)N[C@H]4C[C@@H]4c4ccccc4)C3)cc2)C[C@H]1C(=O)N[C@H]1C[C@@H]1c1ccccc1` [Compound 34, 12-((3S,4S)-1-(4-((3S,4S)-3,4-Bis(((1S,2R)-2-phenylcyclopropyl)carbamoyl)pyrrolidine-1-carbonyl)-benzoyl)-4-(((1S,2R)-2-phenylcyclopropyl)carbamoyl)-pyrrolidine-3-carboxamido)dodecyl 2-azidoacetate], the Emax on TLR1/TLR2 [1] is 120%; at TLR1/TLR2 [2], 100%. The half-maximal effective concentration (EC50) at TLR1/TLR2 [1] (setting [3]) stood at 3.7 nM; at TLR1/TLR2 [2] (setting [4]), 0.21 nM.
The matching figures for `O=C(CNC(=O)OCc1ccccc1)OCCCCCCCCCCCCNC(=O)[C@@H]1CN(C(=O)c2ccc(C(=O)N3C[C@@H](C(=O)N[C@H]4C[C@@H]4c4ccccc4)[C@H](C(=O)N[C@H]4C[C@@H]4c4ccccc4)C3)cc2)C[C@H]1C(=O)N[C@H]1C[C@@H]1c1ccccc1` [Compound 36, 12-((3S,4S)-1-(4-((3S,4S)-3,4-Bis(((1S,2R)-2-phenyl-cyclopropyl)carbamoyl)pyrrolidine-1-carbonyl)-benzoyl)-4-(((1S,2R)-2-phenylcyclopropyl)carbamoyl)-pyrrolidine-3-carboxamido)-dodecyl 2-(((benzyloxy)carbonyl)-amino)acetate]: 410%, 100%, 40 nM and 0.1 nM.
The matching figures for `O=C(CNC(=O)OCC(Cl)(Cl)Cl)OCCCCCCCCCCCCNC(=O)[C@@H]1CN(C(=O)c2ccc(C(=O)N3C[C@@H](C(=O)N[C@H]4C[C@@H]4c4ccccc4)[C@H](C(=O)N[C@H]4C[C@@H]4c4ccccc4)C3)cc2)C[C@H]1C(=O)N[C@H]1C[C@@H]1c1ccccc1` [Compound 37, 12-((3S,4S)-1-(4-((3S,4S)-3,4-Bis(((1S,2R)-2-phenyl-cyclopropyl)carbamoyl)pyrrolidine-1-carbonyl)benzoyl)-4-(((1S,2R)-2-phenylcyclopropyl)carbamoyl)pyrrolidine-3-carboxamido)-dodecyl 2-(((2,2,2-trichloroethoxy)-carbonyl)amino)acetate]: 300%, 100%, 3.4 nM and 0.27 nM.
The matching figures for `O=C(CNC(=O)OCC1c2ccccc2-c2ccccc21)OCCCCCCCCCCCCNC(=O)[C@@H]1CN(C(=O)c2ccc(C(=O)N3C[C@@H](C(=O)N[C@H]4C[C@@H]4c4ccccc4)[C@H](C(=O)N[C@H]4C[C@@H]4c4ccccc4)C3)cc2)C[C@H]1C(=O)N[C@H]1C[C@@H]1c1ccccc1` [Compound 38, 12-((3S,4S)-1-(4-((3S,4S)-3,4-Bis(((1S,2R)-2-phenyl-cyclopropyl)carbamoyl)pyrrolidine-1-carbonyl)benzoyl)-4-(((1S,2R)-2-phenylcyclopropyl)carbamoyl)pyrrolidine-3-carboxamido)-dodecyl 2-((((9H-fluoren-9-yl)methoxy)carbonyl)amino)acetate]: 170%, 100%, 375 nM and 56 nM.
For the compound `COC(=O)NCC(=O)OCCCCCCCCCCCCNC(=O)[C@@H]1CN(C(=O)c2ccc(C(=O)N3C[C@@H](C(=O)N[C@H]4C[C@@H]4c4ccccc4)[C@H](C(=O)N[C@H]4C[C@@H]4c4ccccc4)C3)cc2)C[C@H]1C(=O)N[C@H]1C[C@@H]1c1ccccc1` [Compound 39, 12-((3S,4S)-1-(4-((3S,4S)-3,4-Bis(((1S,2R)-2-phenylcyclopropyl)carbamoyl)pyrrolidine-1-carbonyl)benzoyl)-4-(((1S,2R)-2-phenylcyclopropyl)-carbamoyl)pyrrolidine-3-carboxamido)-dodecyl 2-((methoxycarbonyl)amino)acetate], the results for the Emax at TLR1/TLR2 [1] and on TLR1/TLR2 [2] were 120% and 100%, respectively. In addition, the 50% effective concentration (EC50) at TLR1/TLR2 [1] (setting [3]) came out at 6 nM; on TLR1/TLR2 [2] (setting [4]) it was 0.38 nM.
Consider `CC(=O)NCC(=O)OCCCCCCCCCCCCNC(=O)[C@@H]1CN(C(=O)c2ccc(C(=O)N3C[C@@H](C(=O)N[C@H]4C[C@@H]4c4ccccc4)[C@H](C(=O)N[C@H]4C[C@@H]4c4ccccc4)C3)cc2)C[C@H]1C(=O)N[C@H]1C[C@@H]1c1ccccc1` [Compound 40, 12-((3S,4S)-1-(4-((3S,4S)-3,4-Bis(((1S,2R)-2-phenyl-cyclopropyl)carbamoyl)pyrrolidine-1-carbonyl)-benzoyl)-4-(((1S,2R)-2-phenylcyclopropyl)-carbamoyl)pyrrolidine-3-carboxamido)-dodecyl 2-acetamidoacetate], for which the Emax on TLR1/TLR2 [1] was 180%; on TLR1/TLR2 [2], 90%. The EC50 came to 5 nM on TLR1/TLR2 [1] (setting [3]) and 0.1 nM on TLR1/TLR2 [2] (setting [4]).
In the same order, the values of `O=C(CNC(=O)C(F)(F)F)OCCCCCCCCCCCCNC(=O)[C@@H]1CN(C(=O)c2ccc(C(=O)N3C[C@@H](C(=O)N[C@H]4C[C@@H]4c4ccccc4)[C@H](C(=O)N[C@H]4C[C@@H]4c4ccccc4)C3)cc2)C[C@H]1C(=O)N[C@H]1C[C@@H]1c1ccccc1` [Compound 41, 12-((3S,4S)-1-(4-((3S,4S)-3,4-Bis(((1S,2R)-2-phenyl-cyclopropyl)carbamoyl)pyrrolidine-1-carbonyl)benzoyl)-4-(((1S,2R)-2-phenylcyclopropyl)-carbamoyl)pyrrolidine-3-carboxamido)-dodecyl 2-(2,2,2-trifluoroacetamido)acetate] are 100%, 100%, 3.5 nM and 0.7 nM.
As to `CC(C)(C)C(=O)NCC(=O)OCCCCCCCCCCCCNC(=O)[C@@H]1CN(C(=O)c2ccc(C(=O)N3C[C@@H](C(=O)N[C@H]4C[C@@H]4c4ccccc4)[C@H](C(=O)N[C@H]4C[C@@H]4c4ccccc4)C3)cc2)C[C@H]1C(=O)N[C@H]1C[C@@H]1c1ccccc1` [Compound 42, 12-((3S,4S)-1-(4-((3S,4S)-3,4-Bis(((1S,2R)-2-phenylcyclopropyl)carbamoyl)pyrrolidine-1-carbonyl)benzoyl)-4-(((1S,2R)-2-phenylcyclopropyl)carbamoyl)pyrrolidine-3-carboxamido)-dodecyl 2-pivalamidoacetate], the Emax on TLR1/TLR2 [1] and at TLR1/TLR2 [2] was 110% in each case. In addition, the EC50 at TLR1/TLR2 [1] (setting [3]) came to 6.2 nM; at TLR1/TLR2 [2] (setting [4]), 1.8 nM.
Regarding `NCC(=O)OCCCCCCCCCCCCNC(=O)[C@@H]1CN(C(=O)c2ccc(C(=O)N3C[C@@H](C(=O)N[C@H]4C[C@@H]4c4ccccc4)[C@H](C(=O)N[C@H]4C[C@@H]4c4ccccc4)C3)cc2)C[C@H]1C(=O)N[C@H]1C[C@@H]1c1ccccc1` [Compound 43, 12-((3S,4S)-1-(4-((3S,4S)-3,4-Bis(((1S,2R)-2-phenylcyclopropyl)carbamoyl)pyrrolidine-1-carbonyl)benzoyl)-4-(((1S,2R)-2-phenylcyclopropyl)carbamoyl)pyrrolidine-3-carboxamido)dodecyl glycinate], the EC50 at TLR1/TLR2 [1] was 0.7 to 5 nM; at TLR1/TLR2 [1] (setting [3]), 0.75 nM; on TLR1/TLR2 [2] it was 0.05 to 0.2 nM; at TLR1/TLR2 [2] (setting [4]) it was 0.07 nM. Also, the Emax at TLR1/TLR2 [1] and on TLR1/TLR2 [2] was 100% each time.
In the case of `CN(C)CC(=O)OCCCCCCCCCCCCNC(=O)[C@@H]1CN(C(=O)c2ccc(C(=O)N3C[C@@H](C(=O)N[C@H]4C[C@@H]4c4ccccc4)[C@H](C(=O)N[C@H]4C[C@@H]4c4ccccc4)C3)cc2)C[C@H]1C(=O)N[C@H]1C[C@@H]1c1ccccc1` [Compound 44, 12-((3S,4S)-1-(4-((3S,4S)-3,4-Bis(((1S,2R)-2-phenylcyclopropyl)carbamoyl)pyrrolidine-1-carbonyl)benzoyl)-4-(((1S,2R)-2-phenylcyclo-propyl)carbamoyl)pyrrolidine-3-carboxamido)-dodecyl 2-(dimethylamino)acetate], the EC50 was 0.7 to 5 nM on TLR1/TLR2 [1], 4.7 nM on TLR1/TLR2 [1] (setting [3]), 0.05 to 0.2 nM on TLR1/TLR2 [2] and 0.05 nM at TLR1/TLR2 [2] (setting [4]). Moreover, the Emax came out at 140% at TLR1/TLR2 [1] and 100% at TLR1/TLR2 [2].
Take `O=C(CO)OCCCCCCCCCCCCNC(=O)[C@@H]1CN(C(=O)c2ccc(C(=O)N3C[C@@H](C(=O)N[C@H]4C[C@@H]4c4ccccc4)[C@H](C(=O)N[C@H]4C[C@@H]4c4ccccc4)C3)cc2)C[C@H]1C(=O)N[C@H]1C[C@@H]1c1ccccc1` [Compound 45, 12-((3S,4S)-1-(4-((3S,4S)-3,4-Bis(((1S,2R)-2-phenylcyclopropyl)carbamoyl)pyrrolidine-1-carbonyl)benzoyl)-4-(((1S,2R)-2-phenylcyclo-propyl)carbamoyl)pyrrolidine-3-carboxamido)dodecyl 2-hydroxyacetate]: the EC50 on TLR1/TLR2 [1] was 0.7 to 5 nM; on TLR1/TLR2 [1] (setting [3]), 0.7 nM; at TLR1/TLR2 [2], 0.05 to 0.2 nM; at TLR1/TLR2 [2] (setting [4]), 0.2 nM. Also, the Emax at TLR1/TLR2 [1] came to 140%; at TLR1/TLR2 [2] it was 100%.
In the case of `O=C(COCc1ccccc1)OCCCCCCCCCCCCNC(=O)[C@@H]1CN(C(=O)c2ccc(C(=O)N3C[C@@H](C(=O)N[C@H]4C[C@@H]4c4ccccc4)[C@H](C(=O)N[C@H]4C[C@@H]4c4ccccc4)C3)cc2)C[C@H]1C(=O)N[C@H]1C[C@@H]1c1ccccc1` [Compound 46, 12-((3S,4S)-1-(4-((3S,4S)-3,4-Bis(((1S,2R)-2-phenylcyclopropyl)carbamoyl)pyrrolidine-1-carbonyl)benzoyl)-4-(((1S,2R)-2-phenylcyclopropyl)-carbamoyl)pyrrolidine-3-carboxamido)-dodecyl 2-(benzyloxy)acetate], the EC50 on TLR1/TLR2 [1] is 0.7 to 5 nM; on TLR1/TLR2 [1] (setting [3]), 5.3 nM; on TLR1/TLR2 [2], 0.05 to 0.2 nM; on TLR1/TLR2 [2] (setting [4]), 0.06 nM. Further, the Emax at TLR1/TLR2 [1] amounted to 220%; on TLR1/TLR2 [2], 130%.
